One assay has as its target JAK2 (Homo sapiens (Human), UniProt O60674). The assay can be described thus: Jak biochemical HTRF assay, JAK2. The note with it: HTRF biochemical assay, recombinant GST-tagged catalytic domain; read-out: JAK2 IC50. The protocol:
Jak Biochemical HTRF Assay Protocol
The ability of compounds to inhibit the activity of JAK1, JAK2, JAK3, and Tyk2 was measured using a recombinant purified GST-tagged catalytic domain for each enzyme (Invitrogen JAK1 #M4290, JAK2 #M4290, JAK3 #M4290, Tyk2 #M4290) in an HTRF format biochemical assay. […] The basic assay protocol is as follows: First, 250 nL of diluted compounds in DMSO were dispensed into the wells of a dry 384-well Black plate (Greiner #781076) using a Labcyte Echo 555 acoustic dispenser. Subsequent reagent additions employed an Agilent Bravo. […] After equilibration, 2 μL of 10×ATP in 1× assay buffer was added to initiate the kinase reaction and the plates were shaken and then incubated at room temperature for 120 minutes. […] Plates were shaken and centrifuged and then incubated 60 minutes at room temperature and then read on a Perkin Elmer Envision (λex=337 nm, λem=665 and 615 nm, TRF delay time=20 μs). HTRF signal=10,000*665 nm reading/615 nm reading. After normalization to untreated controls, the percent inhibition of the HTRF signal at each compound concentration was calculated. The plot of percent inhibition versus the log of compound concentration was fit with a 4-parameter dose response equation to calculate IC50 values.
Final Reaction Conditions were:
Examples of the instant invention were evaluated in JAK1 and JAK2 in vitro binding assays.
A general note: Time-resolved FRET reads energy transfer from a long-lived donor to a nearby acceptor.

In a further assay the target is JAK1 (Homo sapiens (Human), UniProt P23458). The assay can be described thus: Jak biochemical HTRF assay, JAK1. The note with it: HTRF biochemical assay, recombinant GST-tagged catalytic domain; read-out: JAK1 IC50.

Structures are written as SMILES.

Sequence of JAK2 (O60674 849-1124): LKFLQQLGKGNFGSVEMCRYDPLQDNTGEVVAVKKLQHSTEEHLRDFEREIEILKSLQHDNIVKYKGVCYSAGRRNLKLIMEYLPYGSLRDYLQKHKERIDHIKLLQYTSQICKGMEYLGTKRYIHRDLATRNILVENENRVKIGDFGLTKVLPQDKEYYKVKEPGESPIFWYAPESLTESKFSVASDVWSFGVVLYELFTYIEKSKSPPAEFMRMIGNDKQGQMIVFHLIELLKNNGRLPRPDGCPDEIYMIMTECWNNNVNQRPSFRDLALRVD
Sequence of JAK1 (P23458 875-1153): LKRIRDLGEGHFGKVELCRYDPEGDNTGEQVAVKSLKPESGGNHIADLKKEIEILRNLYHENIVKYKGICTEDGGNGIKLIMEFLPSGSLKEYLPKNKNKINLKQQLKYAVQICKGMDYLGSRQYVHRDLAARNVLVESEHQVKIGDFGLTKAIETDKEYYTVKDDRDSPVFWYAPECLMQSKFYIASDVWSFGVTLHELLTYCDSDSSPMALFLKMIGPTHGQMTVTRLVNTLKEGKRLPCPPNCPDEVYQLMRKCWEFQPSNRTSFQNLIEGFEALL

Usually IC50 stands for the concentration that gives 50% inhibition. For `N#CCC1(n2nc(Nc3ccc(C(N)C(F)F)cc3)c3c(=O)[nH]ccc32)CCCCC1` (single isomer, unassigned) [Example 9-2, (R or S)-2-(1-(3-(4-(1-Amino(-2,2-difluoroethyl)phenylamino)-4-oxo-4,5-dihydro-1H-pyrazolo[4,3-c]pyridin-1-yl)cyclohexyl)acetonitrile], the IC50 on JAK2 came to 0.51 nM; on JAK1, 0.22 nM.
As for `CC(O)(c1ccc(Nc2nn([C@H]3CCCC[C@@H]3C#N)c3cc[nH]c(=O)c23)cc1)C(F)(F)F` (single isomer, unassigned) [Example 15-11, (1S,2S)-2-[4-oxo-3-({4-[(1R or 1S)-2,2,2-trifluoro-1-hydroxy-1-methylethyl]phenyl}amino)-4,5-dihydro-1H-pyrazolo[4,3-c]pyridin-1-yl]cyclohexanecarbonitrile], the IC50 at JAK2 turned out to be 0.84 nM; on JAK1 it was 0.13 nM.
As for `CC(O)(c1ccc(Nc2nn([C@H]3CCCC[C@@H]3C#N)c3cc[nH]c(=O)c23)cc1)C(F)(F)F` (single isomer, unassigned) [Example 15-12, (1S,2S)-2-[4-oxo-3-({4-[(1R or 1S)-2,2,2-trifluoro-1-hydroxy-1-methylethyl]phenyl}amino)-4,5-dihydro-1H-pyrazolo[4,3-c]pyridin-1-yl]cyclohexanecarbonitrile], the IC50 at JAK2 was 0.84 nM; on JAK1, 0.14 nM.
In the case of `N#C[C@H]1CCCC[C@@H]1n1nc(Nc2ccc3c(c2)CNC3C(F)F)c2c(=O)[nH]ccc21` (single isomer, unassigned) [Example 15-27, (1S,2S)-2-(3-{[(1R or 1S)-1-(difluoromethyl)-2,3-dihydro-1H-isoindol-5-yl]amino}-4-oxo-4,5-dihydro-1H-pyrazolo[4,3-c]pyridin-1-yl)cyclohexanecarbonitrile], the IC50 came to 0.72 nM on JAK2 and 0.22 nM at JAK1.
For `N#C[C@H]1CCCC[C@@H]1n1nc(Nc2ccc3c(c2)CNC3C(F)F)c2c(=O)[nH]ccc21` (single isomer, unassigned) [Example 15-28, (1S,2S)-2-(3-{[(1S or 1R)-1-(difluoromethyl)-2,3-dihydro-1H-isoindol-5-yl]amino}-4-oxo-4,5-dihydro-1H-pyrazolo[4,3-c]pyridin-1-yl)cyclohexanecarbonitrile] the same measures were 0.63 nM and 0.25 nM.
For `Cc1cc(Nc2nn([C@H]3CCCC[C@@H]3C#N)c3cc[nH]c(=O)c23)ccc1C(C(C)C)n1ccnn1` (single isomer, unassigned) [Example 15-37, (1S,2S)-2-[3-({3-methyl-4-[(1S or 1R)-2-methyl-1-(1H-1,2,3-triazol-1-yl)propyl]phenyl}amino)-4-oxo-4,5-dihydro-1H-pyrazolo[4,3-c]pyridin-1-yl]cyclohexanecarbonitrile] the same measures were 0.25 nM and 0.066 nM.
For `Cc1cc(Nc2nn([C@H]3CCCC[C@@H]3C#N)c3cc[nH]c(=O)c23)ccc1C(C(C)C)n1ccnn1` (single isomer, unassigned) [Example 15-38, (1S,2S)-2-[3-({3-methyl-4-[(1R or 1S)-2-methyl-1-(1H-1,2,3-triazol-1-yl)propyl]phenyl}amino)-4-oxo-4,5-dihydro-1H-pyrazolo[4,3-c]pyridin-1-yl]cyclohexanecarbonitrile] the same measures were 0.15 nM and 0.06 nM.
For the compound `Cc1cc(Nc2nn([C@@H]3CCCCC[C@H]3C#N)c3cc[nH]c(=O)c23)ccc1C(=O)N1CCCC1` (single isomer, unassigned) [Example 15-45, (1R,2R or 1S,2S)-2-(3-{[3-methyl-4-(pyrrolidin-1-ylcarbonyl)phenyl]amino}-4-oxo-4,5-dihydro-1H-pyrazolo[4,3-c]pyridin-1-yl)cycloheptanecarbonitrile], the IC50 turned out to be 0.41 nM at JAK2 and 0.43 nM at JAK1.
The corresponding values for `Cc1cc(Nc2nn([C@H]3CCCCC[C@@H]3C#N)c3cc[nH]c(=O)c23)ccc1C(=O)N1CCCC1` (single isomer, unassigned) [Example 15-47, (1S,2S or 1R,2R)-2-(3-{[3-methyl-4-(pyrrolidin-1-ylcarbonyl)phenyl]amino}-4-oxo-4,5-dihydro-1H-pyrazolo[4,3-c]pyridin-1-yl)cycloheptanecarbonitrile] are 14 nM and 19 nM.
The corresponding values for `CN(C(C)(C)C)S(=O)(=O)c1ccc(Nc2nn([C@H]3CCCCC[C@@H]3C#N)c3cc[nH]c(=O)c23)cc1` (single isomer, unassigned) [Example 15-48, N-tert-butyl-4-({1-[(1S,2S or 1R,2R)-2-cyanocycloheptyl]-4-oxo-4,5-dihydro-1H-pyrazolo[4,3-c]pyridin-3-yl}amino)-N-methylbenzenesulfonamide] are 18 nM and 19 nM.
The corresponding values for `CN(C(C)(C)C)S(=O)(=O)c1ccc(Nc2nn([C@@H]3CCCCC[C@H]3C#N)c3cc[nH]c(=O)c23)cc1` (single isomer, unassigned) [Example 15-51, N-tert-butyl-4-({1-[(1R,2R or 1S,2S)-2-cyanocycloheptyl]-4-oxo-4,5-dihydro-1H-pyrazolo[4,3-c]pyridin-3-yl}amino)-N-methylbenzenesulfonamide] are 0.37 nM and 0.23 nM.
Take `N#C[C@H]1CCCCC[C@@H]1n1nc(Nc2ccc3c(c2)CN(C2CCOCC2)S3(=O)=O)c2c(=O)[nH]ccc21` (single isomer, unassigned) [Example 15-54, (1S,2S or 1R,2R)-2-(3-{[1,1-dioxido-2-(tetrahydro-2H-pyran-4-yl)-2,3-dihydro-1,2-benzisothiazol-5-yl]amino}-4-oxo-4,5-dihydro-1H-pyrazolo[4,3-c]pyridin-1-yl)cycloheptanecarbonitrile]: the values for the IC50 at JAK2 and on JAK1 were 0.4 nM and 0.081 nM, respectively.
The corresponding values for `CC(C)C(c1ccc(Nc2nn([C@H]3CCCC[C@@H]3C#N)c3cc[nH]c(=O)c23)cc1)n1cc(C(=O)OC(C)(C)C)nn1` (single isomer, unassigned) [Example 15-57, tert-butyl 1-{(1S or 1R)-1-[4-({1-[(1S,2S)-2-cyanocyclohexyl]-4-oxo-4,5-dihydro-1H-pyrazolo[4,3-c]pyridin-3-yl}amino)phenyl]-2-methylpropyl}-1H-1,2,3-triazole-4-carboxylate] are 1.2 nM and 0.62 nM.
On to `CC(C)C(c1ccc(Nc2nn([C@H]3CCCC[C@@H]3C#N)c3cc[nH]c(=O)c23)cc1)n1cc(C(=O)OC(C)(C)C)nn1` (single isomer, unassigned) [Example 15-58, tert-butyl 1-{(1R or 1S)-1-[4-({1-[(1S,2S)-2-cyanocyclohexyl]-4-oxo-4,5-dihydro-1H-pyrazolo[4,3-c]pyridin-3-yl}amino)phenyl]-2-methylpropyl}-1H-1,2,3-triazole-4-carboxylate], for which the IC50 at JAK2 was determined as 3.1 nM; at JAK1 it was 1.8 nM.
The corresponding values for `Cc1cc(Nc2nn([C@@H]3CCCCC[C@H]3C#N)c3cc[nH]c(=O)c23)ccc1C(O)C(F)(F)F` (single isomer, unassigned) [Example 15-67, (1R,2R or 1S,2S)-2-[3-({3-methyl-4-[(1S or 1R)-2,2,2-trifluoro-1-hydroxyethyl]phenyl}amino)-4-oxo-4,5-dihydro-1H-pyrazolo[4,3-c]pyridin-1-yl]cycloheptanecarbonitrile] are 3.9 nM and 0.38 nM.
For `Cc1cc(Nc2nn([C@@H]3CCCCC[C@H]3C#N)c3cc[nH]c(=O)c23)ccc1C(O)C(F)(F)F` (single isomer, unassigned) [Example 15-68, (1R,2R or 1S,2S)-2-[3-({3-methyl-4-[(1R or 1S)-2,2,2-trifluoro-1-hydroxyethyl]phenyl}amino)-4-oxo-4,5-dihydro-1H-pyrazolo[4,3-c]pyridin-1-yl]cycloheptanecarbonitrile] the same measures were 1.2 nM and 0.26 nM.
For `CC(C)N1Cc2cc(Nc3nn([C@H]4CCCC[C@@H]4C#N)c4cc[nH]c(=O)c34)ccc2C1C` (single isomer, unassigned) [Example 19-1, (1S,2S)-2-(3-(((S or R)-2-isopropyl-1-methylisoindolin-5-yl)amino)-4-oxo-4,5-dihydro-1H-pyrazolo[4,3-c]pyridin-1-yl)cyclohexanecarbonitrile] the same measures were 0.89 nM and 0.91 nM.
Take `CC(C)N1Cc2cc(Nc3nn([C@H]4CCCC[C@@H]4C#N)c4cc[nH]c(=O)c34)ccc2C1C` (single isomer, unassigned) [Example 19-2, (1S,2S)-2-(3-(((R or S)-2-isopropyl-1-methylisoindolin-5-yl)amino)-4-oxo-4,5-dihydro-1H-pyrazolo[4,3-c]pyridin-1-yl)cyclohexanecarbonitrile]: the IC50 was found to be 0.45 nM on JAK2 and 0.47 nM on JAK1.
The corresponding values for `C[C@H](NC1CCC(n2nc(Nc3ccc(Cl)cc3)c3c(=O)[nH]ccc32)C(C#N)C1)C1CC1` (stereo in doubt) [Example 4-1, (1R,2R,5S)-2-(3-((4-Chlorophenyl)amino)-4-oxo-4,5-dihydro-1H-pyrazolo[4,3-c]pyridin-1-yl)-5-(((S)-1-cyclopropylethyl)amino)cyclohexanecarbonitrile] are 122 nM and 5.3 nM.

The record behind these values is patent US9725445B2, “Cycloalkyl nitrile pyrazolo pyridones as Janus kinase inhibitors” (Merck Sharp & Dohme Corp., priority 2013, dated 2017).
